Series [1] concerns androgen-sensitive and castration-resistant human prostate cancer cells. The note with it: androgen-sensitive and castration-resistant human prostate cancer cells in vitro; cited from earlier work.
Series [2] concerns MDA-MB-231 tumor xenograft. In words: Anti-tumor activity in MDA-MB-231 xenograft mouse model. It counts as in vivo. The following applies: 20 mg/kg, PO, 5 days/week, 16 days. On the procedure:
(§1) FIGS. 13A-13D show the anti-tumor activity of VNLG-152R, Compound 4, Compound 8, and Compound 9 in xenograft mouse models. […] In FIGS. 13B and 13D, *=p<0.0001.
(§2) After confirming the improved pharmacokinetic parameters of deuterated compounds 4, 8, and 9, the anti-tumor activity of these compounds was tested in xenograft models of MDA-MB-231 and MDA-MB-468. In both models, the mice for each group were treated with either vehicle (control) or the compounds, each at 20 mg/kg, PO, 5 days/week.

Series [3] concerns MDA-MB-468 tumor xenograft. Nature of the series: Anti-tumor activity in MDA-MB-468 xenograft mouse model. It counts as in vivo. The note with it: 20 mg/kg, PO, 5 days/week, 16 days. The procedure:
as §1, §2

Series [4] in a line: Plasma pharmacokinetics after single oral dose in female CD-1 mice. It counts as in vivo. The following applies: for AUC(0-inf) / MRT (mean residence time) / T1/2 (elimination half-life) / Tmax / Cmax / overall Rank by Total Score: single p.o. dose 10 mg/kg, female CD-1 mice; for AUC(0-inf) / MRT (mean residence time) / T1/2 (elimination half-life) / Tmax / Cmax: plasma; for Cmax: mean of three mice; for clearance from systemic circulation (plasma concentration versus time profile) / systemic exposure: single PO dosing, mice, FIGS. 12A-12C. On the procedure: The PK study was performed by the Certified Research Organization (CRO), Aragen Life Sciences Private Limited (Aragen), Hyderabad, India. All procedures of the present study were in accordance with the guidelines provided by the Committee for the Purpose of Control and Supervision of Experiments on Animals (CPCSEA) as published in The Gazette of India, Jan. 7, 2010. CPCSEA renewal number for institute is 1125/PO/Rc/S/CPCSEA on 13Feb. 2014. Institutional Animal Ethics Committee (IAEC) approval has been taken to initiate the study (IAEC Approval Number: B-011A). The details are presented in the Supplementary Materials.
To minimize the number of mice used in the PK study using a validated LC/MS/MS analysis, both individual (discrete) (set #1: Compound 5, EM=463.2937 and set #2: […], EM=463.2937) and cassette (set #3: Compounds 2, 3, and 7; EMs=459.2686, 462.2874 and 466.3125, respectively, and set #4: Compounds 4, 8, and 9; EMs=460.2749, 464.2999 and 467.3188, respectively) dosing were used.^59,66 The four sets studied were dictated by the exact molecular masses of the compounds as indicated above and in FIG. 3.
The plasma PK profiles were obtained after single oral (PO) dosing of the compounds in mice.
In Table 2, data are presented as the mean of values obtained from three female CD-1 mice. Cmax is the maximum observed plasma concentration. Tmax is the time to maximum concentration. T1/2 is the elimination half-life. AUC represents AUC (0-∞), which is the area under the concentration-time curve from time of dosing extrapolated to infinity. MRT refers to mean residence time. The number in parentheses indicate the rank order from best (1) to worst (8).

Another series has as its system SKBR3. In words: MTT antiproliferative assay, SKBR3 non-TNBC cells. It counts as cell-based. The note with it: Homo sapiens, SK-BR-3, mean of three independent experiments. The procedure: (§3) Compounds 2, 4, 8 and 9, as well as paclitaxel (PTX) were evaluated over a range of concentrations to examine their antiproliferative activities against two non-TNBC cell lines, MCF7 and SKBR3using the well-established 3-(4,5-dimethylthiazolyl-2)-2,5-diphenyl tetrazolium bromide (MTT) assay.^48,55,56 The parent non-deuterated VNLG-152R (Compound 2) was used as the positive control.
(§4) As presented in Table 1 below, the GI50 values of the deuterated Compounds 4, 8 and 9 against the MCF7 cell are identical to the GI50 value of the parent protio VNLG-152R (Compound 2). In contrast, the SKBR3 cell appears to be more sensitive to the deuterated compounds compared to the parent non-deuterated VNLG-152R (Compound 2). The reason for this difference is not understood at this time. The applicant hypothesizes that the enhanced diffusion of these deuterated molecules across the cell membrane of this cell line may result in enhanced intracellular concentrations and inhibition of its proliferation. Each data point is a mean of replicates from three independent experiments.
(In general: Tetrazolium assays rely on reduction of a dye to a coloured formazan, in cell work by metabolically active cells.)

A further series concerns MCF7. Nature of the series: MTT antiproliferative assay, MCF7 non-TNBC cells. It counts as cell-based. The following applies: Homo sapiens, mean of three independent experiments. On the procedure: as §3, §4

Like-named read-outs stand apart in the source and are kept apart here.

`CC1=C(/C=C/C(C)=C/C=C/C(C)=C/C(=O)Nc2ccccc2O)C(C)(C)CCC1n1ccnc1` (centres unmarked) [VNLG-147, (2E,4E,6E,8E)-N-(2-hydroxyphenyl)-9-(3-imidazolyl-2,6,6-trimethylcyclohex-1-enyl)-3,7-dimethylnona-2,4,6,8-tetraenamide]: the “anti-proliferative and anti-metastatic activities” value in series [1] was “potent”.

The term AUC(0-inf) denotes total exposure, with the tail of the curve extrapolated. As a reminder, the Tmax is the time from dosing to the highest level. For orientation: Cmax means the maximum level reached in the sampled fluid or tissue. For orientation: GI50 means the concentration giving 50% growth inhibition. Read a low GI50 as greater sensitivity of the cells. In series [2], `[2H]c1nc([2H])n(C2([2H])CCC(C)(C)C(/C=C/C(C)=C/C=C/C(C)=C/C(=O)Nc3c([2H])c([2H])c(F)c([2H])c3[2H])=C2C)c1[2H]` (racemic) [Compound 9, (±) 4-(Imidazolyl-2″3″5″-D3)-4-(D)-(4′-fluoro(phenyl-2′3′5′6′-D4))-(E)-retinamide] returned a tumor regression of 67%. For the same molecule, the tumor regression in series [3] came out at 37%. Further, the AUC(0-inf) in series [4] (mouse, po) came to 22600 ng·h/mL. Also, in series [4], the “MRT (mean residence time)” value stood at 8.92 h, the “T1/2 (elimination half-life)” value is 10.28 h, the Tmax was 2.67 h and the Cmax amounted to 1615.81 ng/mL. Besides, halving of growth in the series on SKBR3 (GI50) required 100 ± 140 nM. In the series on MCF7, this molecule yielded a GI50 of 220 ± 130 nM.

`CC1=C(/C=C/C(C)=C/C=C/C(C)=C/C(=O)Nc2ccc(F)cc2)C(C)(C)CCC1=O` [Compound 16, 4-Oxo-(4′-fluoro(phenyl))-(E)-retinamide]: in series [4], the “MRT (mean residence time)” value turned out to be 9.06 h and the “T1/2 (elimination half-life)” value turned out to be 12.05 h.

In turn, `[2H]c1nc([2H])n(C2([2H])CCC(C)(C)C(/C=C/C(C)=C/C=C/C(C)=C/C(=O)Nc3ccc(F)cc3)=C2C)c1[2H]` (racemic) [Compound 5, (±) 4-(Imidazolyl-2″3″5″-D3)-4-(D)-(4′-fluoro(phenyl))-(E)-retinamide] gave an AUC(0-inf) in series [4] (mouse, po) of 2700 ng·h/mL. In addition, in series [4], the “MRT (mean residence time)” value was determined as 5.49 h, the “T1/2 (elimination half-life)” value is reported as 4.27 h, the Tmax is given as 0.67 h and the peak concentration (Cmax) was found to be 500.72 ng/mL.

On to `[2H]C1(n2ccnc2)CCC(C)(C)C(/C=C/C(C)=C/C=C/C(C)=C/C(=O)Nc2ccc(F)cc2)=C1C` (racemic) [Compound 4, (±) 4-(Imidazolyl)-4-(D)-(4′-fluoro(phenyl))-(E)-retinamide], for which the “reduction of tumor growth” value in series [2] is 95%. In series [3], this molecule registered a tumor regression of 6.6%. In series [4] (mouse, po), the AUC(0-inf) is 17600 ng·h/mL. Also, in series [4], the “clearance from systemic circulation (plasma concentration versus time profile)” value is “could not be detected after 8 hours”, the systemic exposure result is “very low systemic exposures”, the “overall Rank by Total Score” value was found to be 2nd and the “MRT (mean residence time)” value was 9.06 h. Also, in series [4], the “T1/2 (elimination half-life)” value is recorded as 12.05 h, the Tmax is on record as 2.50 h and the Cmax is reported as 1031.65 ng/mL. This molecule yielded a GI50 with SKBR3 of 140 ± 230 nM. Further, in the series with MCF7, the GI50 came out at 230 ± 250 nM.

As to `[2H]c1nc([2H])n(C2CCC(C)(C)C(/C=C/C(C)=C/C=C/C(C)=C/C(=O)Nc3ccc(F)cc3)=C2C)c1[2H]` (racemic) [Compound 3, (±) 4-(Imidazolyl-2″3″5″-D3)-4-(H)-(4′-fluoro(phenyl))-(E)-retinamide], the AUC(0-inf) in series [4] (mouse, po) was 1740 ng·h/mL. Moreover, in series [4], the “MRT (mean residence time)” value is 3.57 h, the “T1/2 (elimination half-life)” value was 8.39 h, the Tmax is listed as 1.33 h and the Cmax came out at 151.17 ng/mL.

On to `[2H]c1c([2H])c(NC(=O)/C=C(C)/C=C/C=C(C)/C=C/C2=C(C)C([2H])(n3ccnc3)CCC2(C)C)c([2H])c([2H])c1F` (racemic) [Compound 8, (±) 4-(Imidazolyl)-4-(D)-(4′-fluoro(phenyl-2′3′5′6′-D4))-(E)-retinamide], for which the “reduction of tumor growth” value in series [2] came to 95%. Moreover, in series [3], the “reduction of tumor growth” value stood at 93%. In series [4] (mouse, po), this molecule registered an AUC(0-inf) of 15500 ng·h/mL. Also, in series [4], the “clearance from systemic circulation (plasma concentration versus time profile)” value is recorded as “could not be detected after 8 hours”, the systemic exposure entry was “very low systemic exposures”, the “overall Rank by Total Score” value is 3rd and the “MRT (mean residence time)” value is reported as 8.48 h. Also, in series [4], the “T1/2 (elimination half-life)” value came out at 10.20 h, the time to peak (Tmax) amounted to 0.75 h and the Cmax is listed as 1361.22 ng/mL. It took 110 ± 200 nM to inhibit growth in the series with SKBR3 by half (GI50). This molecule showed a GI50 with MCF7 of 330 ± 140 nM.

On to `CC1=C(/C=C/C(C)=C/C=C/C(C)=C/C(=O)Nc2ccccc2)C(C)(C)CCC1n1ccnc1` (centres unmarked) [VNLG-153, (2E,4E,6E,8E)-9-(3-imidazolyl-2,6,6-trimethylcyclohex-1-enyl)-3,7-dimethyl-N-phenylnona-2,4,6,8-tetraenamide], for which the “anti-proliferative and anti-metastatic activities” value in series [1] is recorded as “potent”.

Turning to `[2H]c1nc([2H])n(C2CCC(C)(C)C(/C=C/C(C)=C/C=C/C(C)=C/C(=O)Nc3c([2H])c([2H])c(F)c([2H])c3[2H])=C2C)c1[2H]` (racemic) [Compound 7, (±) 4-(Imidazolyl-2″3″5″-D3)-4-(H)-(4′-fluoro(phenyl-2′3′5′6′-D4))-(E)-retinamide], the AUC(0-inf) in series [4] (mouse, po) turned out to be 2060 ng·h/mL. In series [4], the “MRT (mean residence time)” value is 2.89 h, the “T1/2 (elimination half-life)” value amounted to 4.34 h, the Tmax was determined as 0.83 h and the Cmax came to 454.97 ng/mL.

With `[2H]c1c([2H])c(NC(=O)/C=C(C)/C=C/C=C(C)/C=C/C2=C(C)C(n3ccnc3)CCC2(C)C)c([2H])c([2H])c1F` (racemic) [Compound 6, (±) 4-Imidazolyl-4(H)-(4′-fluoro(phenyl-2′3′5′6′-D4))-(E)-retinamide], in series [4] (mouse, po), the AUC(0-inf) is 1730 ng·h/mL. In series [4] (mouse, po, read-out: Tmax), the Tmax worked out at 0.83 h. In series [4], the “MRT (mean residence time)” value is listed as 4.63 h, the “T1/2 (elimination half-life)” value is on record as 4.90 h and the Cmax turned out to be 272.72 ng/mL.

In the case of `CC(=O)O[C@H]1C(=O)[C@@]2(C)[C@H]([C@H](OC(=O)c3ccccc3)[C@]3(O)C[C@H](OC(=O)[C@H](O)[C@@H](NC(=O)c4ccccc4)c4ccccc4)C(C)=C1C3(C)C)[C@]1(OC(C)=O)CO[C@@H]1C[C@@H]2O` [Paclitaxel, paclitaxel, reference compound], the GI50 in the series with SKBR3 and with MCF7 was 60 ± 120 nM in each case.
